Counter-ions that a name gives are not always drawn.
Key:
[1] = test system: K1 strain of P. falciparum; assay: IC50 determination against K1 strain of P. falciparum, SYBR green-based assay, 72 h; format: cell-based; conditions: Plasmodium falciparum, K1, 72 h, read-out: IC50 against K1 strain of P. falciparum
Description: Based on the anecdotal evidence, two synthetic analogues of emetine dihydrochloride, (−)-R,S-dehydroemetine and (−)-S,S-dehydroisoemetine, were synthesized. Experiments to test drug efficacy were set up, and (−)-R,S-dehydroemetine was tested in 2-fold serial dilutions from 12.5 nM to 200 nM. A dose-response experiment was set up on synchronized ring stage cultures of the K1 strain of P. falciparum to be read at 72 h. […] (−)-S,S-dehydroisoemetine was tested in 2-fold serial dilutions from 0.625 μM to 10 μM. […]
Ring stage parasites were diluted to 0.5 to 1% parasitemia, 2.5% hematocrit (in a 96-well-plate format, 200-μl final well volume) and treated for 72 h. Dose-response parasitemia was determined using the SYBR green-based flow cytometer or plate reader method previously optimized in the laboratory ([14]).
Following drug efficacy experiments, 150-μl amounts from the control and drug-treated wells on a 96-well plate were transferred to microcentrifuge tubes, and samples were washed once with phosphate-buffered saline (PBS). […] Parasitemia was determined by measuring SYBR green fluorescence using the FITC channel of the BD FACSVerse flow cytometer system (blue laser; excitation laser line, 488 nm, with excitation maximum of 494 nm and emission maximum of […]) and cell size (forward scatter [FSC-A]). Fifty thousand events were recorded, in three replicates for each. […]

[2] = test system: K1 strain P. falciparum, unsynchronized cultures; assay: IC50 speed assay (time course) using unsynchronized cultures; format: cell-based, Plasmodium falciparum; conditions: for 24-h IC50 / Time by which the IC50 was reached: unsynchronized cultures; for 24-h IC50: 24 h exposure; for Time by which the IC50 was reached: IC50 speed assay
Description: Following drug efficacy experiments, 150-μl amounts from the control and drug-treated wells on a 96-well plate were transferred to microcentrifuge tubes, and samples were washed once with phosphate-buffered saline (PBS). The supernatant was removed, and samples were incubated in the dark at room temperature for 20 min following the addition of 1 ml of 5× SYBR green solution (prepared by adding 5 μl of 10,000× SYBR green to 10 ml PBS). After staining, the samples were centrifuged for 1 min at 14,000 rpm and the supernatant was discarded. Samples were resuspended in 250 μl of 0.37% formaldehyde fixation solution prepared by diluting 36.5% formaldehyde (Sigma, UK) with PBS to the specified final concentration. The samples were placed in the refrigerator and incubated at 4°C for 15 min. Subsequently, PBS was used to wash the samples 3 times, and finally, the samples were suspended in 1 ml PBS. Parasitemia was determined by measuring SYBR green fluorescence using the FITC channel of the BD FACSVerse flow cytometer system (blue laser; excitation laser line, 488 nm, with excitation maximum of 494 nm and emission maximum of […]) and cell size (forward scatter [FSC-A]). Fifty thousand events were recorded, in three replicates for each. Fluorescence events in drug-treated samples were compared with those in their infected and uninfected blood counterparts and gated accordingly to obtain the percentages of parasitemia.
The IC50 speed assay was used to determine the speeds of action of the emetine analogues. Unsynchronized cultures of K1 strain P. falciparum were used, and parasites were grown in the presence of (−)-R,S-dehydroemetine and (−)-S,S-dehydroisoemetine for three incubation periods of 24 h, 48 h, and 72 h. The assays were analyzed by determining SYBR green fluorescence as described above.
The results for the infected-blood controls were set at 100% for normalization, and percentages of parasitemia for drug-treated samples were calculated relative to the results for the infected controls. For IC50 values, GraphPad Prism 5.0 was used to further process the data. IC50 values were calculated using nonlinear regression (GraphPad Prism 5.0) by using log-transformed drug concentrations plotted against the dose response. The log(inhibitor) versus normalized response-variable slope option was used for IC50 calculation. Emetine dihydrochloride was used as a control drug to validate the method.

hERG potassium channel = molecular target: T1, hERG potassium channel (Homo sapiens, UniProt Q12809); assay: hERG channel inhibition assay (CHO cells, whole-cell voltage clamp, Cyprotex); format: cell-based; conditions: for selectivity ratio at 300 s / inhibition at 300 s, 0.016 µM / inhibition at 300 s, 0.08 µM / inhibition at 300 s, 0.4 µM / inhibition at 300 s, 2 µM / inhibition at 300 s, 10 µM / inhibition at 300 s, 50 µM: human; for selectivity ratio at 300 s: CHO cells expressing the hERG potassium channel, read-out: Selectivity index, IC50 hERG/IC50 parasites
T1 construct: host or cells: Chinese hamster ovary (CHO) cells
T1 sequence (Q12809 whole entry): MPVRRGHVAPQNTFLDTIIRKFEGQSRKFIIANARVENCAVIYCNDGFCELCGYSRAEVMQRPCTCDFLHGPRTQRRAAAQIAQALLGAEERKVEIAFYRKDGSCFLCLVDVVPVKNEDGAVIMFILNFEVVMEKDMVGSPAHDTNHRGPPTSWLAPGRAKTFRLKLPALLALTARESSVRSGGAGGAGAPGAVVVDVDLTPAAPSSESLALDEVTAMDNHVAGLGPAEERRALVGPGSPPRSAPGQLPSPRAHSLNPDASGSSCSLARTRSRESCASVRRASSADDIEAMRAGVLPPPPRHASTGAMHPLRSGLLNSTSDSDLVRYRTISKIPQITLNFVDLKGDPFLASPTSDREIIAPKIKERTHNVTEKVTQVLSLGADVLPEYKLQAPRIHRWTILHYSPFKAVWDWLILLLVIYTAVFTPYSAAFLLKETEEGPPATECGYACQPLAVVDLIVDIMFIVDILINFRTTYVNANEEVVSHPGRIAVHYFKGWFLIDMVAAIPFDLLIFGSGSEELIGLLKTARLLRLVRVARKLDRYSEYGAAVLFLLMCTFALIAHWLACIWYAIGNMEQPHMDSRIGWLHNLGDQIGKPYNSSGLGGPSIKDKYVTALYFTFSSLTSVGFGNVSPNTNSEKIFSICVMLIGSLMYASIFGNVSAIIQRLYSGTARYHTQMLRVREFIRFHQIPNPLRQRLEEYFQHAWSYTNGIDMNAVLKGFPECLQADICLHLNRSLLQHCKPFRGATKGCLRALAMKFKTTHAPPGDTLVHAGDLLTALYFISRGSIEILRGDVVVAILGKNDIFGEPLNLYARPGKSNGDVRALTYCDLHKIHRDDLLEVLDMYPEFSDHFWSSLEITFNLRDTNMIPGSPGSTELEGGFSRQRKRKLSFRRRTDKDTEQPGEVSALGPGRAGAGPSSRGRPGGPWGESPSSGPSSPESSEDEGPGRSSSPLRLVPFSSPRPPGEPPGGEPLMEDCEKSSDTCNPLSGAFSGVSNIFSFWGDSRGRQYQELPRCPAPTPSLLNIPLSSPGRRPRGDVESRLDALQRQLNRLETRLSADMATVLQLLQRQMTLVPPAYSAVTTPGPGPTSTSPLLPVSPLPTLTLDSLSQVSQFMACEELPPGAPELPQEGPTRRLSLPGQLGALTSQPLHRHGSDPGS
Description: For each replicate, the hERG response was calculated using the following equation: % hERG response = post-compound-application current (nA)/pre-compound-application current (nA) × 100.
The experiment to test the potential of emetine, (−)-R,S-dehydroemetine, and (−)-S,S-dehydroisoemetine to inhibit the hERG channel was outsourced to Cyprotex, UK. One-hundred-microliter amounts of a 20 mM concentration of each of the three compounds in DMSO was provided to Cyprotex. […] Chinese Hamster ovary cells expressing the hERG potassium channel were dispensed into 384-well planar arrays, and hERG tail currents were measured by whole-cell voltage clamping. Amphotericin B was used as a perforating agent that was circulated underneath the PatchPlate to gain electrical access to the cell. The pre-compound-application hERG current was measured. Emetine, (−)-R,S-dehydroemetine, and (−)-S,S-dehydroisoemetine in ranges of concentrations were then added to the cells, and a second recording of the hERG current was made. The test compound was left in contact with the cells for 300 s before currents were recorded. […] All buffers, cell suspensions, and drug compound solutions were at room temperature. The percentage of change in hERG current was measured and used to calculate an IC50 value.
Each concentration was tested in 4 replicate wells on the PatchPlate (maximum of 24 data points). Filters were applied to ensure that only acceptable cells were used to assess hERG inhibition.

CCC1=C(C[C@H]2NCCc3cc(OC)c(OC)cc32)C[C@H]2c3cc(OC)c(OC)cc3CCN2C1 [(−)-R,S-dehydroemetine, (S)-2-((R)-6,7-dimethoxy-1,2,3,4-tetrahydro-isoquinolin-1-ylmethyl)-3-ethyl-9,10-dimethoxy-1,6,7,11b-tetrahydro-4H-pyrido[2,1-a]isoquinoline * dihydrobromide]
IC50 [1]: 0.071 ± 0.0061 µM
% Parasitaemia ([2]; 25 nM, 24 hours): 99.25%
% Parasitaemia ([2]; 25 nM, 48 hours): 95.85%
% Parasitaemia ([2]; 25 nM, 72 hours): 98.62%
% Parasitaemia ([2]; 50 nM, 24 hours): 93.88%
% Parasitaemia ([2]; 50 nM, 48 hours): 69.64%
% Parasitaemia ([2]; 50 nM, 72 hours): 89.44%
% Parasitaemia ([2]; 100 nM, 24 hours): 89.00%
% Parasitaemia ([2]; 100 nM, 48 hours): 30.44%
% Parasitaemia ([2]; 100 nM, 72 hours): 17.06%
% Parasitaemia ([2]; 200 nM, 24 hours): 77.03%
% Parasitaemia ([2]; 200 nM, 48 hours): 22.37%
% Parasitaemia ([2]; 200 nM, 72 hours): 13.20%
% Parasitaemia ([2]; 400 nM, 24 hours): 72.09%
% Parasitaemia ([2]; 400 nM, 48 hours): 19.29%
% Parasitaemia ([2]; 400 nM, 72 hours): 11.63%
24-h IC50 [2]: could not be reached within 24 h
Time by which the IC50 was reached [2]: ≤ 48 h
IC50 (hERG potassium channel): 19.3 µM
hERG channel inhibition (in words) (hERG potassium channel): not an hERG channel inhibitor
selectivity ratio at 300 s (hERG potassium channel): > 271
inhibition at 300 s, 0.016 µM (hERG potassium channel): 7.79%
inhibition at 300 s, 0.08 µM (hERG potassium channel): 6.34%
inhibition at 300 s, 0.4 µM (hERG potassium channel): 12.7%
inhibition at 300 s, 2 µM (hERG potassium channel): 7.21%
inhibition at 300 s, 10 µM (hERG potassium channel): 39.4%
inhibition at 300 s, 50 µM (hERG potassium channel): 61.4%

CCC1=C(C[C@@H]2NCCc3cc(OC)c(OC)cc32)C[C@H]2c3cc(OC)c(OC)cc3CCN2C1 [(−)-S,S-dehydroisoemetine, (S)-2-((S)-6,7-dimethoxy-1,2,3,4-tetrahydro-isoquinolin-1-ylmethyl)-3-ethyl-9,10-dimethoxy-1,6,7,11b-tetrahydro-4H-pyrido[2,1-a]isoquinoline * dihydrobromide]
IC50 [1]: 2.07 ± 0.26 µM
% Parasitaemia ([2]; 0.63 μM, 24 hours): 100.96%
% Parasitaemia ([2]; 0.63 μM, 48 hours): 83.33%
% Parasitaemia ([2]; 0.63 μM, 72 hours): 102.96%
% Parasitaemia ([2]; 1.25 μM, 24 hours): 95.69%
% Parasitaemia ([2]; 1.25 μM, 48 hours): 69.00%
% Parasitaemia ([2]; 1.25 μM, 72 hours): 74.67%
% Parasitaemia ([2]; 2.5 μM, 24 hours): 100.62%
% Parasitaemia ([2]; 2.5 μM, 48 hours): 45.41%
% Parasitaemia ([2]; 2.5 μM, 72 hours): 31.88%
% Parasitaemia ([2]; 5 μM, 24 hours): 92.15%
% Parasitaemia ([2]; 5 μM, 48 hours): 30.49%
% Parasitaemia ([2]; 5 μM, 72 hours): 22.99%
% Parasitaemia ([2]; 10 μM, 24 hours): 79.97%
% Parasitaemia ([2]; 10 μM, 48 hours): 24.20%
% Parasitaemia ([2]; 10 μM, 72 hours): 13.33%
24-h IC50 [2]: could not be reached within 24 h
Time by which the IC50 was reached [2]: ≤ 48 h
IC50 (hERG potassium channel): 2.99 µM
hERG channel inhibition (in words) (hERG potassium channel): potent inhibitor
selectivity ratio at 300 s (hERG potassium channel): 1.48
inhibition at 300 s, 0.016 µM (hERG potassium channel): 8.13%
inhibition at 300 s, 0.08 µM (hERG potassium channel): 4.61%
inhibition at 300 s, 0.4 µM (hERG potassium channel): 9.33%
inhibition at 300 s, 2 µM (hERG potassium channel): 36%
inhibition at 300 s, 10 µM (hERG potassium channel): 70.7%
inhibition at 300 s, 50 µM (hERG potassium channel): 96.9%
